“And” between values parts separate entries of the source, which are not always exact repeats. Identical values can stand only once. Like-named read-outs stand apart in the source and are kept apart here.

One test addresses T1, active SAH hydrolase (Bos taurus, UniProt Q3MHL4).
T1 construct: SAH hydrolase is purified with classical chromatographical methods to homogeneity from organs e.g. from bovine kidney; from tissue; host or cells: bovine kidney
T1 sequence (Q3MHL4 2-432 limits assumed): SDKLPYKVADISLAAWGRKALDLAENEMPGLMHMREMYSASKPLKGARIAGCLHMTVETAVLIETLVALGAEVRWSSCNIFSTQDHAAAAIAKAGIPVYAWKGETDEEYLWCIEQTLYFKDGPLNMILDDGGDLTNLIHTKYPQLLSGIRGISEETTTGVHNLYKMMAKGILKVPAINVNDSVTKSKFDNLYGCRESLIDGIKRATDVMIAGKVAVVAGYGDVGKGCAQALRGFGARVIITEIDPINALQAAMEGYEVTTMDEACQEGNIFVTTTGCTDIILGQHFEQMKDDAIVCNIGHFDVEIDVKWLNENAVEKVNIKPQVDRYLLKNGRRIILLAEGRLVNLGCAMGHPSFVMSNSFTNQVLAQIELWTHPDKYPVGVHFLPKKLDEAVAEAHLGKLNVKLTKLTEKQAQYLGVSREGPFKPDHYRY
Kind of test: 3H-adenosine displacement using active SAH hydrolase. In kind it is binding, bovine. The protocol:
SAH hydrolase is purified with classical chromatographical methods to homogeneity from organs e.g. from bovine kidney. Fresh bovine kidney (450 g), obtained from the local slaughterhouse were homogenized in two volumes of 50 mM potassium phosphate buffer pH 7.0, 1 mM DTT, 1 mM EDTA and 10 mM PMSF. The homogenate was centrifuged at 20000×g for 60 min. […] After centrifugation at 20000×g for 30 min the precipitate was disolved in 300-400 ml 20 mM Tris/HCl pH 7.5, 1 mM DTT and 1 mM EDTA and dialyzed against the same buffer.

Another test deals with T2, reduced SAH hydrolase (Bos taurus, UniProt Q3MHL4).
T2 construct: SAH hydrolase is purified with classical chromatographical methods to homogeneity from organs e.g. from bovine kidney; from tissue; host or cells: bovine kidney
T2 sequence (Q3MHL4 2-432 limits assumed): T1 sequence (Q3MHL4 2-432 limits assumed)
Kind of test: 3H-adenosine displacement using reduced SAH hydrolase. In kind it is binding, bovine. On the procedure:
100 μl reduced SAH hydrolase (1 μg/300 μl)
50 μl buffer—20 mM Tris, 40 mM Hepes pH 7.0
Therefore the samples are incubated over night. The assay mixture is separated through nitrocellulose filters with a filtration equipment.

[1] abbreviates: active SAH hydrolase, read-out: EC50 values of 3H-adenosine displacement, active SAH hydrolase.
Where [2] appears, read: reduced SAH hydrolase, read-out: EC50 values of 3H-adenosine displacement, reduced SAH hydrolase.

Regarding `Nc1ncnc2c1ncn2[C@H]1C[C@H](O)[C@@H](CO)O1` [2′-deoxyadenosine], the EC50 on active SAH hydrolase (setting [1]) came out at 0.094 µM; on reduced SAH hydrolase (setting [2]) it was 0.63 µM.

As to `Nc1ncnc2c1ncn2[C@@H]1O[C@H](COP(=O)(O)OP(=O)(O)O)[C@@H](O)[C@H]1O` [ADP], the EC50 on active SAH hydrolase (setting [1]) was 10 µM; at reduced SAH hydrolase (setting [2]) it was > 100 µM.

`Nc1ncnc2c1ncn2[C@@H]1O[C@H](CSCC[C@H](N)C(=O)O)[C@@H](O)[C@H]1O` [SAH, S-adenosylhomocysteine]: the EC50 stood at 0.246 µM at active SAH hydrolase (setting [1]) and 0.4 µM on reduced SAH hydrolase (setting [2]).

For `CCNC(=O)[C@H]1O[C@@H](n2cnc3c(N)ncnc32)[C@H](O)[C@@H]1O` [NECA], the EC50 at active SAH hydrolase (setting [1]) is 0.24 µM; on reduced SAH hydrolase (setting [2]), > 100 µM.

In the case of `N[C@@H](CCS)C(=O)O` [homocysteine], the EC50 on active SAH hydrolase (setting [1]) and at reduced SAH hydrolase (setting [2]) was 5 µM throughout.

With `Nc1ncnc2c1ncn2[C@@H]1O[C@H](COP(=O)(O)O)[C@@H](O)[C@H]1O` [AMP], the EC50 was 10 µM on active SAH hydrolase (setting [1]); 100 µM and > 100 µM at reduced SAH hydrolase (setting [2]).

`OC[C@H]1O[C@@H](n2cnc3c(O)ncnc32)[C@H](O)[C@@H]1O` [inosine]: the EC50 at active SAH hydrolase (setting [1]) and on reduced SAH hydrolase (setting [2]) was 10 µM throughout.

In the case of `Cn1c(=O)c2[nH]cnc2n(C)c1=O` [theophylline], the EC50 on active SAH hydrolase and on reduced SAH hydrolase was > 100 µM each time.

For the compound diadenosine-dialdehyde, the figures for the concentration for a half-maximal effect (EC50) on active SAH hydrolase (setting [1]) and on reduced SAH hydrolase (setting [2]) were 0.18 µM and 10 µM, respectively.

As for `Nc1ncnc2nc[nH]c12` [adenine], the EC50 at active SAH hydrolase (setting [1]) was 11.5 µM; at reduced SAH hydrolase (setting [2]), > 100 µM.

As a reminder, the EC50 is the midpoint of the concentration-response curve.

The values are drawn from US6395256B1 (priority 1997, dated 2002).
